Data on 73 compounds can be found in PubChem BioAssay AID449762 (Southern Research Specialized Biocontainment Screening …, 2010).

This test relates to M. tuberculosis H37Rv growth inhibition, 7H9 media. Briefly: M. tuberculosis growth inhibition, HTS (AID 449762).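 For all read-outs here: bacterial growth assessed after seven days of incubation.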 The note with it: for IC90: measured here: IC90 growth inhibition.

Structures are written as SMILES. Inconclusive results are not listed.

As a reminder, the IC50 is the concentration at which inhibition is half-maximal. In general, IC90 refers to the concentration needed for an effect of 90%. A high value points to a need for much substance. Take `N#CCCN(C(=O)COC(=O)CCc1c[nH]c2ccccc12)c1ccc(F)cc1`: the IC50 was 30.7 µM and the IC90 was determined as 70.8 µM. In the same order, the values of `ClCc1nc2ccccc2c2ccccc12` are 6.3 µM and 17.2 µM. Regarding `Cc1cc(C)n2nc(N)c(N=Nc3ccccc3)c2n1`, the IC50 was 2.9 µM and the IC90 stood at 3.27 µM. Turning to `Cc1ccc(-n2nc(C)c3c(C)c(CCC(=O)Nc4ccc(CN5CCCC5)cc4)c(C)nc32)cc1`, the IC50 is 13.4 µM and the IC90 was 19.9 µM. As for `Oc1ccccc1N=Cc1ccc[nH]1`, the IC50 was 3.83 µM and the IC90 was 7.96 µM. Turning to `Cc1ccc(-c2c[n+](CC(=O)N3c4ccccc4Sc4ccccc43)c3n2CCC3)cc1`, the IC50 is 12.9 µM and the IC90 came out at 20.2 µM. Regarding `CC(/C=C/C=C/c1ccccc1)=N\NC(=O)c1cccnc1`, the IC50 is 91.8 µM and the IC90 was above 100 µM. For the compound `CC1CCc2c(sc3ncnc(NCCCOC(C)C)c23)C1` (centres undefined), the IC50 was 53.2 µM and the IC90 turned out to be 67.1 µM. Regarding `O=c1cc(N=Nc2ccc(Cl)cc2)[nH]c(=O)[nH]1`, the IC50 is 42 µM and the IC90 is above 100 µM. In the case of `c1ccc2c(C3=NNC(=NC4CCCCC4)SC3)c[nH]c2c1`, the IC50 is 42.7 µM and the IC90 was 47.2 µM. For `O=[N+]([O-])c1ccc(O)c(-c2cc(C(F)(F)F)nc(-c3ccccc3)n2)c1`, the IC50 was 22.2 µM and the IC90 was found to be 23.3 µM.

As to `Cc1ccc(C(=O)C2CCN(CC(=O)Nc3nc(C)cs3)CC2)cc1`, the IC50 is 13.6 µM and the IC90 amounted to 25.2 µM. Taken in the same sequence, the figures for `CCOC(=O)COn1c2c(c3c4no[n+]([O-])c4ccc31)CCCC2` were 3.16 µM and 5.83 µM.

In the case of `COc1ccc(COc2cc(-c3cccc(OC)c3)nc3ccc(NC(=O)c4ccc(OC)cc4)cc23)cc1`, the IC50 was 5.42 µM and the IC90 was above 100 µM. In the case of `CCOC(=O)c1c(/N=C/N(C)C)sc(/C=N/Nc2ccccc2)c1-c1ccccc1Cl`, the IC50 is 81.8 µM and the IC90 is above 100 µM. Regarding `COc1ccc(-c2csc3nc(-c4ccccc4OC)oc(=O)c23)cc1`, the IC50 is below 0.2 µM and the IC90 came to 24.1 µM. Taken in the same sequence, the figures for `COc1ccccc1-n1cc2c([N+](=O)[O-])cc([N+](=O)[O-])cc2n1` were below 0.2 µM and 3.18 µM. As to `Cc1ccc(NC(=O)Cc2ccc(-c3ccccc3)cc2)nc1`, the IC50 is 25 µM and the IC90 was 61.3 µM.

`CC(C)C1N=C(c2ccc3c(c2)OCO3)CC(c2ccccc2O)N1` (centres undefined): the IC50 is 20.8 µM and the IC90 was 30.4 µM.

In the case of `CON(C)c1nc(C2CCCCC2)c2cc(C)ccc2n1`, the IC50 is 60.1 µM and the IC90 worked out at 75.5 µM. Take `Oc1cc(Nc2ccccc2)cc2cccnc12`: the IC50 was 13.8 µM and the concentration for an effect of 90% (IC90) worked out at 26.6 µM. As for `Cc1sc2nc(CN(C(=O)NC3CCCCC3)C3CCCC3)[nH]c(=O)c2c1C`, the IC50 is 30.5 µM and the IC90 was above 100 µM. `CC(C)NCC(O)c1ccc(O)c(O)c1` (centres undefined) displayed an IC90 above 100 µM. Take `Cc1ccc(/C=C(\NC(=O)c2ccc(C)cc2)c2nc(=S)[nH][nH]2)cc1`: the IC50 was 39.5 µM and the IC90 is 48.9 µM.

For the compound `NC1=NC[C@H](CC2CCCCC2)N1CCc1cc(C(F)(F)F)cc(C(F)(F)F)c1`, the IC50 was 8.9 µM and the IC90 worked out at 11.6 µM.

For `CCCCNC(=S)N/N=C/c1cccc(OCC)c1O`, the IC50 is 6.01 µM and the 90% effect concentration (IC90) is 6.79 µM. Taken in the same sequence, the figures for `COc1ccc(NC(=O)CSC2CCCCC2)cc1` were 35.2 µM and above 100 µM. For `Nc1ccc(N=Nc2ccccc2)c(N)n1`, the IC90 is above 100 µM.

For the compound `CN(c1ccccc1)c1ccc(/C=C/[N+](=O)[O-])cc1`, the 50% inhibitory concentration (IC50) is 8.97 µM and the IC90 was found to be 16.9 µM. Taken in the same sequence, the figures for `Cn1c(/C=N/Nc2nc3ccccc3[nH]2)nc2ccccc21` were 40.1 µM and 61.4 µM. For the compound `CCOC(=O)CSCC(=O)N1CCC(Cc2ccccc2)CC1`, the IC50 is 5.35 µM and the IC90 came out at 19.6 µM.

Take `C=CCOc1c(Br)cc(CNc2nccs2)cc1OC`: the IC50 was 22.3 µM and the IC90 is 40.9 µM. `CCOc1ccc2nc(/N=C/c3nc(-c4ccccc4)oc3O)sc2c1` had an IC90 above 100 µM.

For `O=C(Cc1ccccc1)N/N=C/c1ccc2cccc(O)c2n1`, the IC50 was 7.67 µM and the IC90 turned out to be 12.3 µM. Turning to `O=[N+]([O-])c1cc(-c2nc(-c3ccncc3)no2)cc([N+](=O)[O-])c1`, the IC50 was 3.64 µM and the IC90 was 11.4 µM. Take `CC(C)C[C@H]1C(=O)N2CCC[C@H]2[C@]2(O)O[C@](NC(=O)C3C=C4c5cccc6[nH]c(Br)c(c56)C[C@H]4N(C)C3)(C(C)C)C(=O)N12` (some centres undefined): the IC90 was above 100 µM. For `C#CCOCCOCCOCCNc1nc(N2CCN(C(=O)CCCCCCCCCCNC(=O)[C@H](CCCCN)n3cc(CCCC(=O)O)nn3)CC2)nc(N2CCN(C(=O)CCCCCCCCCCNC(=O)[C@H](CCCN=C(N)N)n3cc(C[C@@H](C)CC)nn3)CC2)n1`, the IC50 is 4.78 µM and the IC90 was found to be 5.97 µM.

For the compound `Nc1ccc(-c2nc3ccc(-c4nc5ccccc5o4)cc3[nH]2)cc1`, the IC50 was 31.4 µM and the IC90 was determined as 41.6 µM. As to `Cc1ccnc(NC(=O)CCc2c[nH]c3ccccc23)c1`, the IC50 is 25.8 µM and the IC90 amounted to 54.4 µM.

In the case of `C/C(CC(=O)Nc1ccc2c(c1)OCCO2)=N\NC(=O)c1ccccc1F`, the IC50 is 6.94 µM and the concentration for an effect of 90% (IC90) is above 100 µM. Taken in the same sequence, the figures for `COc1ccc(C(=O)OCC(=O)c2ccc(Br)s2)c(OC)c1` were 26 µM and above 100 µM. Take `COc1cc(-c2ccc3oc(-c4ccsc4)cc(=O)c3c2)cc(OC)c1OC`: the IC50 was 2.07 µM and the IC90 is 17.6 µM. Turning to `Nc1ccccc1C#CC(=O)c1ccccc1`, the IC50 was 1.11 µM and the IC90 amounted to 43.1 µM. Take `O=[N+]([O-])c1ccc(COc2ccc(-c3[nH]ncc3-c3ccc(Cl)cc3)c(O)c2)cc1`: the IC50 was 67.1 µM and the IC90 is above 100 µM. As for `COCc1nnc(NC(=O)C2CC(=O)N(c3ccc(C)c(Cl)c3)C2)s1` (centres undefined), the IC50 was 51.1 µM and the IC90 was above 100 µM.

As to `Fc1ccc(N/N=C2/CC(c3ccccc3)Oc3ccccc32)c(F)c1` (centres undefined), the IC90 is above 100 µM. Take `CCOc1cc(C(=O)OCc2ccc(C(=O)OC)o2)cc(Br)c1OC`: the IC50 was 61.7 µM and the IC90 is above 100 µM.

On to `CCOC(=O)CCCNC(=O)COC(=O)c1cc(Br)c(Br)s1`, for which the IC50 is 9.86 µM and the IC90 is above 100 µM. In the same order, the values of `COC(=O)CSc1ncnc2c1sc1nc3c(cc12)COC(C)(C)C3` are 3.68 µM and 17.3 µM. As for `CN(C)C(=O)C1C2NC(=S)N(c3ccc(Cl)cc3)C1(C)Oc1ccc(Cl)cc12` (centres undefined), the IC50 is 23.6 µM and the IC90 turned out to be 26.9 µM. For the compound `O=C(CN1CCC(n2nnc3cc(C(F)(F)F)ccc32)CC1)NCc1cccs1`, the IC50 was 37.5 µM and the IC90 is 47.8 µM. Take `COc1ccc(C2=Nn3c(nnc3-c3ccccc3F)SC2)cc1OC1CCCC1`: the IC50 was 8.9 µM and the IC90 turned out to be 19.6 µM. Turning to `Cc1nnc(-c2ccccc2)c(=O)n1/N=C/c1c(O)ccc2ccccc12`, the IC50 is 24.1 µM and the IC90 turned out to be 27.3 µM. Taken in the same sequence, the figures for `CCOc1cc(/C=C2\COc3ccccc3C2=O)cc(Br)c1OCC(=O)N(C)C` were 2.75 µM and 6.63 µM.

As for `COC(=O)Cn1nc(-c2ccccc2)c2cc(Cl)ccc21`, the IC50 is 8.72 µM and the IC90 came to 51.7 µM. Regarding `COc1ccc(N=c2cc(-c3ccc(O)cc3)oc3ccccc23)cc1`, the IC50 was 22.3 µM and the IC90 came out at 25.8 µM.

Turning to `Cc1cccc(/C=C2/S/C(=N/N=C3\CC4CCC3(C)C4(C)C)NC2=O)c1` (centres undefined), the IC50 was 7.92 µM and the IC90 is above 100 µM. For the compound `O=C(/C=C/c1c(F)cccc1Cl)c1ccc(F)cc1`, the IC50 is 23.8 µM and the IC90 came to 34.4 µM. In the same order, the values of `CC(C)(C)NC(=O)C(c1c[nH]c2ccccc12)N(C(=O)Cn1nnc(-c2ccc(F)cc2)n1)c1cccc(O)c1` (centres undefined) are 64 µM and above 100 µM. As for `C=CCNC(=S)N/N=C(\C)c1ccccn1`, the IC50 is 7.07 µM and the IC90 was found to be 17.7 µM. In the case of `C=C(CCC(=O)c1ccccc1)C(=O)c1ccccc1`, the IC50 was 7.32 µM and the IC90 stood at 18.7 µM. On to `O=C(Nc1ncc(Cc2ccccc2Cl)s1)C1=NCCN1`, for which the IC50 is 0.43 µM and the IC90 was 92.9 µM. In the case of `C=CCC1(CC=C)CCCN1C(=O)c1cc(COc2ccc(-n3cncn3)cc2)on1`, the IC50 is 41.8 µM and the IC90 is above 100 µM. `CCCN(CC1CC1)C(=O)COC(=O)c1ccc2c(c1)C(=O)N(c1ccc(OCC)cc1)C2=O`: the IC50 was 35.2 µM and the IC90 is above 100 µM. `O=[N+]([O-])c1ccc(C2CC(c3ccccc3)=Nc3ccccc3S2)cc1` (centres undefined): the IC50 was 5.11 µM and the IC90 was 6.66 µM.

Consider `NC1=NC2(CCC(c3ccccc3)CC2)n2c(nc3ccccc32)N1` (centres undefined), for which the IC50 was 28.6 µM and the IC90 amounted to 38.3 µM. With `COc1cccc(-c2cc3nc4c(c(NCC(C)(C)CN(C)C)n3n2)CCCC4)c1`, the IC50 is 22 µM and the IC90 amounted to 28.2 µM. In the same order, the values of `CCN=c1scc(-c2ccco2)n1/N=C/c1ccc(OC)c(O)c1` are 12.3 µM and 41.8 µM. For `CN1CCN(CC/C=C2/c3ccccc3Sc3ccc(S(=O)(=O)N(C)C)cc32)CC1`, the IC90 is above 100 µM. On to `COc1ccccc1N1CCN(CCCCOc2cccc3ccccc23)CC1`, for which the IC50 is 34 µM and the IC90 is 44.5 µM.

As for `Cc1cccc(CSc2nc3c(c(-c4cccs4)c2C#N)CN(C)CC3)c1`, the IC90 was above 100 µM. In the case of `NC(=S)N/N=C/c1ccc(-c2ccccc2)o1`, the IC50 was 48.8 µM and the IC90 was 75 µM. Turning to `C[C@]12CC[C@@H]3c4ccc(O)cc4CC[C@H]3[C@@H]1CC[C@@H]2OC(=O)CCC1CCCC1`, the IC50 is 6.41 µM and the IC90 was 10.9 µM.
